Measurements published in patent US20160058829A1, “ANTI-FIBROTIC PEPTIDES AND THEIR USE IN METHODS FOR TREATING DISEASES AND DISORDERS CHARACTERIZED BY FIBROSIS” (Thrasos Innovation, Inc., priority 2011, published 2016).
Entries after “also recorded” stand apart in the source; their conditions may differ. Like-named read-outs stand apart in the source and are kept apart here. Positions of bridges follow the written chain, without caps; N, C: chain ends.

How the values were obtained:
NP-1 cells = assay: TGF-β-induced EMT in NP-1 cells (inhibition and reversal); format: cell-based; conditions: added after EMT induction for additional 48 hrs; BMP 7 1 μg/ml, THR-123 10 μM
p38 MAPK = p38 MAPK phosphorylation in HK-2 cells; format: cell-based, human
Source text: The significance of p38 MAPK is that this protein is implicated as a non-Smad-dependent pathway for TGF-β-dependent EMT. Other non-Smad-dependent pathways implicated in TGF-β-dependent EMT include RhoA, Ras, PI3 kinase, Notch, and Wnt signaling pathways.
It has been shown that regulation p38 MAPK activity by pro-inflammatory factors has implications in fibrosis.

ALK2 = biological target: T1, ALK2 (Homo sapiens, UniProt Q04771); assay: BMP type I receptor binding, ALK2 ECD
T1 sequence (Q04771 21-123 limits assumed): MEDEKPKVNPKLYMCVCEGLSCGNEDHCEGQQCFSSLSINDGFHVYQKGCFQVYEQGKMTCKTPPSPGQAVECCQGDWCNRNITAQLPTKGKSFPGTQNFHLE
Procedure: FIG. 31 provides a table indicating a comparison between THR-123 (SEQ ID NO: 1) and BMP-7 for binding to Type I and Type II BMP receptors. Like BMP-7, THR-123 binds to both ALK2 and ALK3 (type I) and BMPR-II (type II) BMP receptors. However, BMP-7, but not THR-123 binds to ALK6 (type I) receptor.
First, specific affinity of the extra cellular domains (ECD) of the several type I receptors of BMPs to THR-123 was analyzed. Binding of cold BMP7 to immobilized receptor ECDs was determined by competition with ^125I-labeled BMP7 and analyzed by Scatchard analysis to determine effective dissociation constants of BMP7 for each of the receptor ECDs. To obtain an estimate of the effective dissociation constant of THR-123 for a particular receptor ECD, the dissociation constant for cold BMP7 was multiplied by the ratio of the ED50 of THR-123 to the ED50 for cold BMP7.

[1] = test system: mice with unilateral ureteral obstruction (UUO); assay: Unilateral ureteral obstruction (UUO) in mice; format: in vivo; conditions: for kidney histology (H&E), day 7 UUO: BMP7 i.p., THR-123 i.p. or orally; for interstitial volume / fibrosis, day 7 UUO: BMP-7 300 μg/Kg every other day i.p., THR-123 5 mg/Kg/day i.p. or oral
Procedure: FIG. 56A-FIG. 56J The effect of THR-123 on mice with unilateral ureteral obstruction (UUO) mice. At the day of UUO, BMP-7 (300 μg/Kg/every other day, intraperitoneal administration) or THR-123 (5 mg/Kg/day, oral or intraperitoneal administration) are initiated. FIG. 56A-FIG. 56D: Masson's trichrome staining of normal kidney, day 5 UUO kidney. FIG. 56A. normal kidney section. […] FIG. 56C, FIG. 56D. […] FIG. 56E. Morphometric analysis for relative interstitial volume. Interstitial volume was calculated by the point counting method. FIG. 56F-FIG. 56I. Masson's trichrome staining of normal kidney, day 7 UUO kidney. […] FIG. 56I. Morphometric analysis for relative interstitial volume. Interstitial volume was calculated by the point counting method. […] Normal mice (n=4), day 5 UUO without treatment (n=4), day 5 UUO-treated with 5 mg/kg THR-123 (n=4), day 5 UUO-treated with 15 mg/kg THR-123 (n=4), day 7 UUO-treated with PBS (n=8), -treated with BMP (n=8) and -treated with THR-123 (n=7 in both i.p. and oral). Data are shown as mean±s.e.m. in the graph (FIG. 56J).
FIG. 57A-FIG. 57H The effect of THR-123 on mice with unilateral ureteral obstruction (UUO) mice (H&E staining). On the day UUO was performed, treatments of BMP7 (300 μg/Kg/every other day, intraperitoneal administration) or THR-123 (5 mg/Kg/day, oral or intraperitoneal administration) are initiated. FIG. 57A. Normal kidney section. FIG. 57B. Day 5 UUO mice FIG. 57C, FIG. 57D. Kidney of UUO mice treated with THR-123 orally at 5 mg/kg (FIG. 57C) or 15 mg/kg (FIG. 57D) E-H. Day 7 UUO kidney histology. […] Normal mice (n=4), day 5 UUO without treatment (n=4), day 5 UUO-treated with 5 mg/kg THR-123 (n=4), day 5 UUO-treated with 15 mg/kg THR-123 (n=4), day 7 UUO-treated with PBS (n=8), -treated with BMP (n=8) and -treated with THR-123 (n=7 in both i.p. and oral).
FIG. 58 Gene expression analysis for the fibrosis markers in mice with UUO. Quantitative RT-PCR analysis for fibronectin-EIII and collagen type-I in normal kidney and day 7 UUO kidney with or without indicated treatment.
Mice are anesthetized with the mixture of ketamine and xylazine. Prepare the ureter from the surrounding tissues and place two ligatures about 5 mm apart in upper two-thirds of the ureter of the left kidney to obtain reliable obstruction. At same day after surgery, mice were initiated treatment with BMP7 (300 μg i.p./Kg/every other day), THR-123 (p.o. 5 mg or 15 mg/Kg/day, i.p. 5 mg/Kg/day) or PBS (i.p.) as control. Mice are sacrificed at day 5 or 7 after operation.

## (H)-CYFDDSSNVLCKKYRS-(OH) (H-CYFDDSSNVLCKKYRS-OH; disulfide 1-11; SMILES CC(C)C[C@@H]1NC(=O)[C@H](C(C)C)NC(=O)[C@H](CC(N)=O)NC(=O)[C@H](CO)NC(=O)[C@H](CO)NC(=O)[C@H](CC(=O)O)NC(=O)[C@H](CC(=O)O)NC(=O)[C@H](Cc2ccccc2)NC(=O)[C@H](Cc2ccc(O)cc2)NC(=O)[C@@H](N)CSSC[C@@H](C(=O)N[C@@H](CCCCN)C(=O)N[C@@H](CCCCN)C(=O)N[C@@H](Cc2ccc(O)cc2)C(=O)N[C@@H](CCCNC(=N)N)C(=O)N[C@@H](CO)C(=O)O)NC1=O) [SEQ ID NO: 1]
NP-1 cells
  reversal of EMT morphology: reversal of the morphology
p38 MAPK; HK-2 cells
  TNF alpha induced p38 phosphorylation: effectively inhibited
  basal p38 phosphorylation: effectively inhibited
p38 MAPK; THR-123 1 uM versus specific inhibitor 10 uM
  potency on p38 phosphorylation relative to SB 203580: as potent as 10 uM of the specific inhibitor
ALK2; listed as THR-123
  binding to ALK2: to a small extent; also recorded: binds
[1]
  kidney histology (H&E), day 7 UUO: preserved tubules
[1]; 5 mg/kg/day
  interstitial volume / fibrosis, day 7 UUO: inhibited fibrosis; also recorded: less kidney interstitial volume
[1]; THR-123 oral 5 mg/Kg or 15 mg/Kg
  interstitial volume expansion, day 5 UUO: inhibited interstitial volume expansion
[1]; THR-123 orally 5 mg/kg or 15 mg/kg
  kidney histology, day 5 UUO: less tubular atrophy, tubular dilatation and interstitial inflammation
[1]; quantitative RT-PCR
  expression of fibronectin and type I collagen, day 7 UUO: decreased expression of matrix components such as fibronectin and type I collagen

B1: BMP-7: bone morphogenetic protein-7; recombinant human BMP7, positive control (protein)
chain: STGSKQRSQNRSKTPKNQEALRMANVAENSSSDQRQACKKHELYVSFRDLGWQDWIIAPEGYAAYYCEGECAFPLNSYMNATNHAIVQTLVHFINPETVPKPCCAPTQLNAISVLYFDDSSNVILKKYRNMVVRACGCH
NP-1 cells
  reversal of EMT morphology: reversal of the morphology
p38 MAPK; HK-2 cells
  basal p38 phosphorylation: inhibited p38 phosphorylation
ALK2
  binding to ALK2: binds
[1]
  kidney histology (H&E), day 7 UUO: preserved tubules
  interstitial volume / fibrosis, day 7 UUO: ameliorated interstitial volume expansion
[1]; listed as BMP7
  interstitial volume / fibrosis, day 7 UUO: less kidney interstitial volume
